Reference: patent US20200009088A1, “COMPOSITIONS AND METHODS FOR TREATING ANDROGEN-INDEPENDENT CANCER” (The Regents of the University of California, priority 2017, published 2020)

Assays:
C4-2B MDVR cells = assay: Cell growth assay (cell numbers), C4-2B MDVR; type: cell-based; settings: C4-2B MDVR, 48 hours
C4-2B AbiR cells = assay: Cell growth assay (cell numbers), C4-2B AbiR; type: cell-based; settings: 48 hours, FIG. 7C
C4-2-V7 cells = assay: Cell growth assay (cell numbers), C4-2-V7; type: cell-based; settings: 48 hours, FIG. 7D
C4-2BMDVR cells = assay: ELISA cell death (apoptosis) assay; type: cell-based; settings: compound alone, analogs compared with niclosamide, FIG. 8
Experimental: To further examine the anti-cancer effects of these compounds, an ELISA cell death assay was performed.

AR-V3 = assay: PSA-luc assay in C4-2B cells, AR-V3; type: cell-based; settings: FBS, 1 μM overnight, FIG. 14C
Text: C4-2B cells were cotransfected with pcDNA, with or without AR-V1, AR-V3, AR-V7, AR-V9 or AR-V12, and with PSA-E/P-luciferase plasmids in FBS condition.

AR variants [1] = assay: AR variant protein degradation (cycloheximide, MG132, ubiquitin IP) in CWR22Rv1 cells; type: cell-based; settings: FIG. 15
Experimental: (§1) “AR-Variants” represents a combination of all forms of AR.
(§2) To determine if the small molecule modulators affect AR-V7 protein expression via protein degradation, CWR22Rv1 and C4-2B MDVR cells were treated with cycloheximide (CHX) and the half-life of AR-V7 protein was measured.
After 0, 2, 4, and 8 hours, whole cell lysate was collected and subjected to Western blot. The half-life of AR-V7 was then calculated.
Subsequently, the whole cell lysate was collected and subjected to Western blot.
For the data shown in FIG. 15C, CWR22Rv1 cells were treated with Nic, Compound 7, or Compound 31. Subsequently, whole cell lysate was immunoprecipitated with an AR antibody and blotted with ubiquitin and AR antibodies.

AR variants [2] = assay: AR variant protein degradation (cycloheximide, MG132, ubiquitin IP) in C4-2B MDVR cells; type: cell-based; settings: FIG. 16
Experimental: as §1, §2
After 0, 2, 4, and 8 hours, whole cell lysate was collected and subjected to Western blot. Half-life of AR-V7 was then calculated.
Whole cell lysate was subsequently collected and subjected to Western blot.
Whole cell lysate was immunoprecipitated with an AR antibody and blot with ubiquitin and AR antibodies.

in vivo = settings: for Cmax: rat plasma, p.o. 200 mg/kg
Experimental: Blood samples were obtained at the time points indicated in FIG. 18 (0 minutes, 15 minutes, 30 minutes, 1 hour, 1.5 hours, 2 hours, 4 hours, 6 hours, 8 hours, and 24 hours) and the plasma was isolated for LC-MS analysis.

CWR22Rv1 cells = assay: Cell growth assay (cell numbers), CWR22Rv1; type: cell-based
[3] = male, Sprague-Dawley, rat, in vivo, po, 200 mg/kg
[4] = male, Sprague-Dawley, rat, plasma, po, 200 mg/kg

Question: Which “cell proliferation, combination with enzalutamide (MDV)” value (“cell proliferation, combination” below) (C4-2B MDVR cells; 0.5 μM + enzalutamide, FIG. 7B) does the source give for O=C(Nc1ccc([N+](=O)[O-])cc1Cl)c1cc(Cl)ccc1O [niclosamide, (5-chloro-N-2-chloro-4-nitro-phenyl)-2-hydroxybenzamide, reference compound] here?
Answer: further inhibited

Question: And the cell growth (C4-2B MDVR cells; 0.5 μM, FIG. 7B)?
Answer: significantly inhibited

Question: And the cell growth (C4-2B MDVR cells; increasing doses of niclosamide/analogs, FIG. 6)?
Answer: able to inhibit cell growth in a dose-dependent manner

Question: What about the “cell proliferation, combination” value (C4-2B AbiR cells; 0.5 μM + enzalutamide) of the same molecule?
Answer: further inhibited

Question: And the cell growth (C4-2B AbiR cells; 0.5 μM)?
Answer: significantly inhibited

Question: And the “cell proliferation, combination” value (C4-2-V7 cells; C4-2-V7, 0.5 μM + enzalutamide)?
Answer: further inhibited

Question: And the cell growth (C4-2-V7 cells; C4-2-V7, 0.5 μM)?
Answer: significantly inhibited

Question: And the cell apoptosis (C4-2BMDVR cells)?
Answer: significantly induced

Question: And the “AR-V3-mediated PSA-luc activity” value (AR-V3)?
Answer: inhibited

Question: And the “AR variant degradation via the proteasome-ubiquitination system” value (AR variants [1])?
Answer: degraded

Question: And the “AR variant degradation via the proteasome-ubiquitination system” value (AR variants [2])?
Answer: degraded

Question: And the “AUC_% Extrap_obs” value (in vivo; [3])?
Answer: 3.67 +/− 3.73%

Question: What about the HL_Lambda_z (in vivo; [3]) of the same molecule?
Answer: 328.09 ± 173.05 min

Question: What about the AUC(0-inf) (in vivo; [4]) of the same molecule?
Answer: 28.4 µM·h

Question: And the AUC(0-t) (in vivo; [4])?
Answer: 4.14 µM·h

Question: And the Tmax (in vivo; [4])?
Answer: 25 min

Question: And the Cmax (in vivo; male, Sprague-Dawley, rat, plasma, po, 200 mg/kg, Cmax)?
Answer: 1560 nM

Question: And the Cmax (in vivo)?
Answer: 1560 nM

Question: What about the “cell proliferation, combination” value (CWR22Rv1 cells; CWR22Rv1, 0.5 μM + enzalutamide, 48 hours, FIG. 7A) of the same molecule?
Answer: further inhibited

Question: What about the cell growth (CWR22Rv1 cells; CWR22Rv1, 0.5 μM, 48 hours, FIG. 7A) of the same molecule?
Answer: significantly inhibited

Question: And the cell growth (CWR22Rv1 cells; CWR22Rv1, 48 hours, increasing doses of niclosamide/analogs, FIG. 6)?
Answer: able to inhibit cell growth in a dose-dependent manner
